Test results reported in patent US20260226493A1, “HERBICIDE RESISTANT PLANTS” (SYNGENTA CROP PROTECTION AG, priority 2023, published 2026).

Legend:
Assay in all cases: BIO3-BIO1 mutant enzyme activity in the presence of herbicide, percentage inhibition (fluorometric DAPA assay)
Format in all cases: biochemical
Settings in all cases: read-out: percentage inhibition
[1] = target: T1, Arabidopsis thaliana BIO3-BIO1 (BioDA) mutants (Arabidopsis thaliana, UniProt B0F481, A609W)
T1 construct: with the predicted N-terminal mitochondrial transit peptide removed; 6xHis-tag (N); thrombin cleavage site (N); made in house; host or cells: E. coli BL21 (DE3) bioA
T1 sequence (B0F481 23-833 A609W): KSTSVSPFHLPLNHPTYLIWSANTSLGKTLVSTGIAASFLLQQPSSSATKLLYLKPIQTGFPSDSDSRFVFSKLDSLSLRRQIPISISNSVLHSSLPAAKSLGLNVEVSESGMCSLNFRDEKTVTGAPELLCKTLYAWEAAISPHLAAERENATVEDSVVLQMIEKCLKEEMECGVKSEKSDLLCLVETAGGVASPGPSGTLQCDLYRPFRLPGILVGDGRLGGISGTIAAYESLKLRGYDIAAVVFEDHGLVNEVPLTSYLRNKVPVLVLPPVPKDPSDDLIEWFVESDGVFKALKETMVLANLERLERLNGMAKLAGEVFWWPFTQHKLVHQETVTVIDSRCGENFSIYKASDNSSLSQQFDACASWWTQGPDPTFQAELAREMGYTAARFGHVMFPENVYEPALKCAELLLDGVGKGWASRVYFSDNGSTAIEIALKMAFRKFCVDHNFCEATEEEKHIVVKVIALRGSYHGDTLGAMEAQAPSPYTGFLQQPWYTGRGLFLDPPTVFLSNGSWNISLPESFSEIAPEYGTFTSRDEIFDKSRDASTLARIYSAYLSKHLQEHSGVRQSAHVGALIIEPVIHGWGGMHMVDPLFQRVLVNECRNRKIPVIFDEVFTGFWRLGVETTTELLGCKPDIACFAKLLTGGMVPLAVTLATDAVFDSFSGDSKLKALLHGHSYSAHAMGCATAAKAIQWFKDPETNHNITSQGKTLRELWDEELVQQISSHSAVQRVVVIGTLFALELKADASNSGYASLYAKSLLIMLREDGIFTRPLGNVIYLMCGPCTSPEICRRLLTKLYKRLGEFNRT
Method in brief: (§1)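 His-tagged Arabidopsis BIO3-BIO1 mutants, expressed in E. coli and purified by IMAC and SEC, were preincubated at 50 nM with herbicide for 10 min at 20 °C in EPPS pH 8.6 with pyridoxal phosphate. Reaction with 100 μM spermidine and 20 μM KAPA ran 75 min at 20 °C; DAPA was derivatised with o-phthalaldehyde and read at ex 410/em 470 nm. […].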

[2] = target: T2, Arabidopsis thaliana BIO3-BIO1 (BioDA) mutants (Arabidopsis thaliana, UniProt B0F481, F348I)
T2 construct: with the predicted N-terminal mitochondrial transit peptide removed; 6xHis-tag (N); thrombin cleavage site (N); made in house; host or cells: E. coli BL21 (DE3) bioA
T2 sequence (B0F481 23-833 F348I): as the sequence (B0F481 23-833 A609W) above, with F326I, W587A counted along it
Method in brief: as §1

[3] = target: T3, Arabidopsis thaliana BIO3-BIO1 (BioDA) mutants (Arabidopsis thaliana, UniProt B0F481, F348N)
T3 construct: with the predicted N-terminal mitochondrial transit peptide removed; 6xHis-tag (N); thrombin cleavage site (N); made in house; host or cells: E. coli BL21 (DE3) bioA
T3 sequence (B0F481 23-833 F348N): as the sequence (B0F481 23-833 A609W) above, with F326N, W587A counted along it
Method in brief: as §1

[4] = target: T4, Arabidopsis thaliana BIO3-BIO1 (BioDA) mutants (Arabidopsis thaliana, UniProt B0F481, G513L)
T4 construct: with the predicted N-terminal mitochondrial transit peptide removed; 6xHis-tag (N); thrombin cleavage site (N); made in house; host or cells: E. coli BL21 (DE3) bioA
T4 sequence (B0F481 23-833 G513L): as the sequence (B0F481 23-833 A609W) above, with G491L, W587A counted along it
Method in brief: as §1

[5] = target: T5, Arabidopsis thaliana BIO3-BIO1 (BioDA) mutants (Arabidopsis thaliana, UniProt B0F481, S509W)
T5 construct: with the predicted N-terminal mitochondrial transit peptide removed; 6xHis-tag (N); thrombin cleavage site (N); made in house; host or cells: E. coli BL21 (DE3) bioA
T5 sequence (B0F481 23-833 S509W): as the sequence (B0F481 23-833 A609W) above, with S487W, W587A counted along it
Method in brief: as §1

[6] = target: T6, Arabidopsis thaliana BIO3-BIO1 (BioDA) mutants (Arabidopsis thaliana, UniProt B0F481, T512D)
T6 construct: with the predicted N-terminal mitochondrial transit peptide removed; 6xHis-tag (N); thrombin cleavage site (N); made in house; host or cells: E. coli BL21 (DE3) bioA
T6 sequence (B0F481 23-833 T512D): as the sequence (B0F481 23-833 A609W) above, with T490D, W587A counted along it
Method in brief: as §1

[7] = target: T7, Arabidopsis thaliana BIO3-BIO1 (BioDA) mutants (Arabidopsis thaliana, UniProt B0F481, S509F)
T7 construct: with the predicted N-terminal mitochondrial transit peptide removed; 6xHis-tag (N); thrombin cleavage site (N); made in house; host or cells: E. coli BL21 (DE3) bioA
T7 sequence (B0F481 23-833 S509F): as the sequence (B0F481 23-833 A609W) above, with S487F, W587A counted along it
Method in brief: as §1

[8] = target: T8, Arabidopsis thaliana BIO3-BIO1 (BioDA) mutants (Arabidopsis thaliana, UniProt B0F481, S509H)
T8 construct: with the predicted N-terminal mitochondrial transit peptide removed; 6xHis-tag (N); thrombin cleavage site (N); made in house; host or cells: E. coli BL21 (DE3) bioA
T8 sequence (B0F481 23-833 S509H): as the sequence (B0F481 23-833 A609W) above, with S487H, W587A counted along it
Method in brief: as §1

[9] = target: T9, Arabidopsis thaliana BIO3-BIO1 (BioDA) mutants (Arabidopsis thaliana, UniProt B0F481, S509N)
T9 construct: with the predicted N-terminal mitochondrial transit peptide removed; 6xHis-tag (N); thrombin cleavage site (N); made in house; host or cells: E. coli BL21 (DE3) bioA
T9 sequence (B0F481 23-833 S509N): as the sequence (B0F481 23-833 A609W) above, with S487N, W587A counted along it
Method in brief: as §1

[10] = target: T10, Arabidopsis thaliana BIO3-BIO1 (BioDA) mutants (Arabidopsis thaliana, UniProt B0F481, Y511V)
T10 construct: with the predicted N-terminal mitochondrial transit peptide removed; 6xHis-tag (N); thrombin cleavage site (N); made in house; host or cells: E. coli BL21 (DE3) bioA
T10 sequence (B0F481 23-833 Y511V): as the sequence (B0F481 23-833 A609W) above, with Y489V, W587A counted along it
Method in brief: as §1

[11] = target: T11, Arabidopsis thaliana BIO3-BIO1 (BioDA) mutants (Arabidopsis thaliana, UniProt B0F481, R797Q)
T11 construct: with the predicted N-terminal mitochondrial transit peptide removed; 6xHis-tag (N); thrombin cleavage site (N); made in house; host or cells: E. coli BL21 (DE3) bioA
T11 sequence (B0F481 23-833 R797Q): as the sequence (B0F481 23-833 A609W) above, with W587A, R775Q counted along it
Method in brief: as §1

[12] = target: T12, Arabidopsis thaliana BIO3-BIO1 (BioDA) mutants (Arabidopsis thaliana, UniProt B0F481, W391L)
T12 construct: with the predicted N-terminal mitochondrial transit peptide removed; 6xHis-tag (N); thrombin cleavage site (N); made in house; host or cells: E. coli BL21 (DE3) bioA
T12 sequence (B0F481 23-833 W391L): as the sequence (B0F481 23-833 A609W) above, with W369L, W587A counted along it
Method in brief: as §1

`CCn1c(Cn2ccc(C(F)(F)F)n2)cc(=O)c(C(=O)O)c1-c1ccc(Cl)c(Cl)c1` [Compound L, 2-(3,4-dichlorophenyl)-1-ethyl-4-oxo-6-[[3-(trifluoromethyl)pyrazol-1-yl]methyl]pyridine-3-carboxylic acid] gave an inhibition at 0.01 µM [1] of 35%, an inhibition at 0.075 µM [1] of 46% and an inhibition at 0.5 µM [1] of 66%. For the same compound, the inhibition at 0.01 µM [2] was 1%, the inhibition at 0.075 µM [2] was 3% and the inhibition at 0.5 µM [2] was 14%. It also gave an inhibition at 0.01 µM [3] of 0%, an inhibition at 0.075 µM [3] of 0% and an inhibition at 0.5 µM [3] of 21%. It also gave an inhibition at 0.01 µM [4] of 58%, an inhibition at 0.075 µM [4] of 88% and an inhibition at 0.5 µM [4] of 97%.
`CCn1c(C)c(-c2ccc(F)cc2F)c(=O)c(C(=O)O)c1-c1ccc(Cl)c(Cl)c1` [Compound C, 2-(3,4-dichlorophenyl)-5-(2,4-difluorophenyl)-1-ethyl-6-methyl-4-oxo-pyridine-3-carboxylic acid] showed an inhibition at 0.2 µM [5] of 14%, an inhibition at 1 µM [5] of 92% and an inhibition at 5 µM [5] of 103%. It also gave an inhibition at 0.2 µM [1] of 21%, an inhibition at 1 µM [1] of 33% and an inhibition at 5 µM [1] of 38%. For the same compound, the inhibition at 0.2 µM [6] was 79%, the inhibition at 1 µM [6] was 95% and the inhibition at 5 µM [6] was 97%. For the same compound, the inhibition at 0.2 µM [2] was 6%, the inhibition at 1 µM [2] was 11% and the inhibition at 5 µM [2] was 49%. The inhibition at 0.2 µM [7] was 24%, the inhibition at 1 µM [7] was 82% and the inhibition at 5 µM [7] was 98%. It also gave an inhibition at 0.2 µM [8] of 20%, an inhibition at 1 µM [8] of 75% and an inhibition at 5 µM [8] of 98%. The inhibition at 0.2 µM [3] was 0%, the inhibition at 1 µM [3] was 2% and the inhibition at 5 µM [3] was 17%. For the same compound, the inhibition at 0.2 µM [4] was 69%, the inhibition at 1 µM [4] was 92% and the inhibition at 5 µM [4] was 98%. The inhibition at 0.2 µM [9] was 16%, the inhibition at 1 µM [9] was 50% and the inhibition at 5 µM [9] was 86%. For the same compound, the inhibition at 0.2 µM [10] was 28%, the inhibition at 1 µM [10] was 94% and the inhibition at 5 µM [10] was 97%. For the same compound, the inhibition at 0.2 µM [11] was 7%, the inhibition at 1 µM [11] was 32% and the inhibition at 5 µM [11] was 52%. The inhibition at 0.2 µM [12] was 23%, the inhibition at 1 µM [12] was 29% and the inhibition at 5 µM [12] was 33%.
For `CCn1c(-c2ccc(Cl)c(Cl)c2)c(C(=O)O)c(=O)c2cc(F)ccc21` [Compound M, 2-(3,4-dichlorophenyl)-1-ethyl-6-fluoro-4-oxo-quinoline-3-carboxylic acid], the inhibition at 0.2 µM [5] was 0%, the inhibition at 1 µM [5] was 60% and the inhibition at 5 µM [5] was 95%. It also gave an inhibition at 0.2 µM [1] of 24%, an inhibition at 1 µM [1] of 31% and an inhibition at 5 µM [1] of 52%. For the same compound, the inhibition at 0.2 µM [6] was 59%, the inhibition at 1 µM [6] was 86% and the inhibition at 5 µM [6] was 96%. The inhibition at 0.2 µM [2] was 0%, the inhibition at 1 µM [2] was 6% and the inhibition at 5 µM [2] was 25%. It also gave an inhibition at 0.2 µM [7] of 19%, an inhibition at 1 µM [7] of 58% and an inhibition at 5 µM [7] of 89%. The inhibition at 0.2 µM [8] was 23%, the inhibition at 1 µM [8] was 82% and the inhibition at 5 µM [8] was 98%. For the same compound, the inhibition at 0.2 µM [3] was 0%, the inhibition at 1 µM [3] was 1% and the inhibition at 5 µM [3] was 15%. For the same compound, the inhibition at 0.2 µM [4] was 54%, the inhibition at 1 µM [4] was 85% and the inhibition at 5 µM [4] was 97%. The inhibition at 0.2 µM [9] was 6%, the inhibition at 1 µM [9] was 39% and the inhibition at 5 µM [9] was 78%. It also gave an inhibition at 0.2 µM [10] of 33%, an inhibition at 1 µM [10] of 88% and an inhibition at 5 µM [10] of 99%. It also gave an inhibition at 0.2 µM [11] of 0%, an inhibition at 1 µM [11] of 5% and an inhibition at 5 µM [11] of 30%. For the same compound, the inhibition at 0.2 µM [12] was 18%, the inhibition at 1 µM [12] was 16% and the inhibition at 5 µM [12] was 43%.
`CCOC(=O)c1nn(-c2ccc3c(c2)OC(F)(F)C(F)(F)O3)c2cccc(C(C)=O)c2c1=O` [Compound A, ethyl 5-acetyl-4-oxo-1-(2,2,3,3-tetrafluoro-1,4-benzodioxin-6-yl)cinnoline-3-carboxylate] was tested, and the inhibition at 1 µM [5] was 0%, the inhibition at 1 µM [1] was 34% and the inhibition at 1 µM [6] was 33%. For the same compound, the inhibition at 1 µM [2] was 7%, the inhibition at 1 µM [7] was 6% and the inhibition at 1 µM [8] was 0%. For the same compound, the inhibition at 1 µM [3] was 2%, the inhibition at 1 µM [4] was 89% and the inhibition at 1 µM [9] was 43%. For the same compound, the inhibition at 1 µM [10] was 45%, the inhibition at 1 µM [11] was 35% and the inhibition at 1 µM [12] was 62%.
